Results: BindingDB's records for doi:10.1074/jbc.M114.557629 (Weizmann Institute of Science, 2014)

How the values were obtained:
[1] = target: Sodium/potassium-transporting ATPase subunit alpha-2/beta-1 (Homo sapiens, UniProt P05026+P50993); assay: Na,K-ATPase Inhibition Assay
[2] = target: Sodium/potassium-transporting ATPase subunit alpha-1/beta-1 (Homo sapiens, UniProt P05023+P05026); assay: Na,K-ATPase Inhibition Assay

| Compound | Ki [1] | Ki [2] |
| --- | --- | --- |
| C[C@H]1O[C@@H](O[C@H]2[C@@H](O)C[C@H](O[C@H]3CC[C@@]4(C)[C@H](CC[C@@H]5[C@@H]4C[C@@H](O)[C@]4(C)[C@@H](C6=CC(=O)OC6)CC[C@]54O)C3)O[C@@H]2C)C[C@H](O)[C@@H]1O [Dbis] | 74 nM | 196 nM |
| CC1CN(O)CCC(O[C@@H]2[C@H](C)O[C@@H](O[C@@H]3[C@H](C)O[C@@H](O[C@H]4CC[C@@]5(C)C(CCC6C5C[C@H](O)[C@]5(C)[C@@H](C7=CC(=O)OC7)CC[C@]65O)C4)C[C@@H]3O)C[C@@H]2O)O1 (some centres not stated) [DOH (1)] | 134 nM | 311 nM |
| CC1CN(CC(=O)O)CCC(O[C@@H]2[C@H](C)O[C@@H](O[C@@H]3[C@H](C)O[C@@H](O[C@H]4CC[C@@]5(C)C(CCC6C5C[C@H](O)[C@]5(C)[C@@H](C7=CC(=O)OC7)CC[C@]65O)C4)C[C@@H]3O)C[C@@H]2O)O1 (some centres not stated) [DGly (2)] | 25 nM | 124 nM |
| CC1CN(C(CC(=O)O)CC(=O)O)CCC(O[C@@H]2[C@H](C)O[C@@H](O[C@@H]3[C@H](C)O[C@@H](O[C@H]4CC[C@@]5(C)C(CCC6C5C[C@H](O)[C@]5(C)[C@@H](C7=CC(=O)OC7)CC[C@]65O)C4)C[C@@H]3O)C[C@@H]2O)O1 (some centres not stated) [DbisGly (14)] | 34.9 nM | 80 nM |
| CC1CN(C(CO)C(N)=O)CCC(O[C@@H]2[C@H](C)O[C@@H](O[C@@H]3[C@H](C)O[C@@H](O[C@H]4CC[C@@]5(C)C(CCC6C5C[C@H](O)[C@]5(C)[C@@H](C7=CC(=O)OC7)CC[C@]65O)C4)C[C@@H]3O)C[C@@H]2O)O1 (some centres not stated) [DSerN (7)] | 144 nM | 242 nM |
| CC1CN(C(C)C(N)=O)CCC(O[C@@H]2[C@H](C)O[C@@H](O[C@@H]3[C@H](C)O[C@@H](O[C@H]4CC[C@@]5(C)C(CCC6C5C[C@H](O)[C@]5(C)[C@@H](C7=CC(=O)OC7)CC[C@]65O)C4)C[C@@H]3O)C[C@@H]2O)O1 (some centres not stated) [DAlaN (5)] | 67 nM | 232 nM |
| CCN1CCC(O[C@@H]2[C@H](C)O[C@@H](O[C@@H]3[C@H](C)O[C@@H](O[C@H]4CC[C@@]5(C)C(CCC6C5C[C@H](O)[C@]5(C)[C@@H](C7=CC(=O)OC7)CC[C@]65O)C4)C[C@@H]3O)C[C@@H]2O)OC(C)C1 (some centres not stated) [DEt (12)] | 18.5 nM | 53 nM |
| CC1CN(CC(N)=O)CCC(O[C@@H]2[C@H](C)O[C@@H](O[C@@H]3[C@H](C)O[C@@H](O[C@H]4CC[C@@]5(C)C(CCC6C5C[C@H](O)[C@]5(C)[C@@H](C7=CC(=O)OC7)CC[C@]65O)C4)C[C@@H]3O)C[C@@H]2O)O1 (some centres not stated) [DGlyN (4)] | 20.4 nM | 152 nM |
| CC1CN(C)CCC(O[C@@H]2[C@H](C)O[C@@H](O[C@@H]3[C@H](C)O[C@@H](O[C@H]4CC[C@@]5(C)C(CCC6C5C[C@H](O)[C@]5(C)[C@@H](C7=CC(=O)OC7)CC[C@]65O)C4)C[C@@H]3O)C[C@@H]2O)O1 (some centres not stated) [DMe (11)] | 15.6 nM | 101 nM |
| CC1CN(CCN)CCC(O[C@@H]2[C@H](C)O[C@@H](O[C@@H]3[C@H](C)O[C@@H](O[C@H]4CC[C@@]5(C)C(CCC6C5C[C@H](O)[C@]5(C)[C@@H](C7=CC(=O)OC7)CC[C@]65O)C4)C[C@@H]3O)C[C@@H]2O)O1 (some centres not stated) [DEtDA (10)] | 16.7 nM | 69 nM |
| COC(=O)CN1CCC(O[C@@H]2[C@H](C)O[C@@H](O[C@@H]3[C@H](C)O[C@@H](O[C@H]4CC[C@@]5(C)C(CCC6C5C[C@H](O)[C@]5(C)[C@@H](C7=CC(=O)OC7)CC[C@]65O)C4)C[C@@H]3O)C[C@@H]2O)OC(C)C1 (some centres not stated) [DGlMe (3)] | 128 nM | 540 nM |
| CC1CN(NC(N)=O)CCC(O[C@@H]2[C@H](C)O[C@@H](O[C@@H]3[C@H](C)O[C@@H](O[C@H]4CC[C@@]5(C)C(CCC6C5C[C@H](O)[C@]5(C)[C@@H](C7=CC(=O)OC7)CC[C@]65O)C4)C[C@@H]3O)C[C@@H]2O)O1 (some centres not stated) [DSCar (8)] | 20 nM | 102 nM |
| CC1CN(C(CO)C(=O)O)CCC(O[C@@H]2[C@H](C)O[C@@H](O[C@@H]3[C@H](C)O[C@@H](O[C@H]4CC[C@@]5(C)C(CCC6C5C[C@H](O)[C@]5(C)[C@@H](C7=CC(=O)OC7)CC[C@]65O)C4)C[C@@H]3O)C[C@@H]2O)O1 (some centres not stated) [DSer (6)] | 145 nM | 316 nM |
| CC1CN(CCC(N)=O)CCC(O[C@@H]2[C@H](C)O[C@@H](O[C@@H]3[C@H](C)O[C@@H](O[C@H]4CC[C@@]5(C)C(CCC6C5C[C@H](O)[C@]5(C)[C@@H](C7=CC(=O)OC7)CC[C@]65O)C4)C[C@@H]3O)C[C@@H]2O)O1 (some centres not stated) [DPrN (9)] | 47 nM | 249 nM |
| C[C@]12CC[C@H](O)C[C@H]1CC[C@@H]1[C@@H]2C[C@@H](O)[C@]2(C)[C@@H](C3=CC(=O)OC3)CC[C@]12O [CS337] | 130 nM | 139 nM |
| CC1CN(CC(F)(F)F)CCC(O[C@@H]2[C@H](C)O[C@@H](O[C@@H]3[C@H](C)O[C@@H](O[C@H]4CC[C@@]5(C)C(CCC6C5C[C@H](O)[C@]5(C)[C@@H](C7=CC(=O)OC7)CC[C@]65O)C4)C[C@@H]3O)C[C@@H]2O)O1 (some centres not stated) [DMeCF3 (13)] | 44 nM | 199 nM |
